Data published in paper PMC7352759, “S(+)-(2E)-N-(2-Hydroxypropyl)-3-Phenylprop-2-Enamide (KM-568): A Novel Cinnamamide Derivative with Anticonvulsant Activity in Animal Models of Seizures and Epilepsy” (International Journal of Molecular Sciences, 2020).

Tests used:
[1] = system: rat cerebral cortex GABA receptor; assay: GABA receptor radioligand binding ([3H]GABA); conditions: 10 µM; non-selective agonist radioligand
Method: In order to identify molecular mechanism of action, KM-568 was tested at 10 µM in three radioligand binding assays: rat cerebral cortex GABA receptor non-selective agonist radioligand, AMPA (α-amino-3-hydroxy-5-methyl-4-isoxazolepropionic acid) receptor agonist radioligand, and NMDA (N-methyl-D-aspartate) receptor antagonist radioligand as well as one functional assay involving a human recombinant TRPV1 receptor expressed in CHO cells (agonist and antagonist effects).
Tests were performed by Eurofins Cerep (Eurofins CEREP SA, Celle-Lévescault, France) as a commercial service. In radioligand assays, rat cerebral cortex GABA receptor as well as rat cerebral cortex AMPA (α-amino-3-hydroxy-5-methyl-4-isoxazolepropionic acid) and NMDA (N-methyl-D-aspartate) receptors with 10 nM [^3H]GABA, 8 nM [^3H]AMPA, and 5 nM [^3H]CGP39653, respectively, were used. The results were detected by means of scintillation counting. In functional assays, a human recombinant TRPV1 receptor expressed in Chinese hamster ovary (CHO) cells with 1 µM capsaicin or 30 nM capsazepine were used. Fluorimetry was used as a detection method.

[2] = system: corneal kindled mice; assay: Corneal kindled seizure model in mice; type: in vivo; conditions: for Average Seizure Score / Results (protected/tested animals): corneal kindled mice, i.p.
Method: Mice were stimulated via corneal electrodes (3 mA, 60 Hz, 3 sec) for an average of 12 days, 4 h apart. Prior to each stimulation, a drop of 0.5% tetracaine hydrochloride in saline was applied to the cornea. After development of five consecutive seizure stages at level 5 according to the Racine scale, animals were considered kindled. The groups of 8 mice received an intraperitoneal injection of appropriate doses of KM-568. […] Mice were scored as protected if the seizure score was less than or equal to three and not protected if the seizure score was more than three, based on the Racine scoring system.

[3] = system: rats; assay: Maximal electroshock test (MES), rats; type: in vivo; conditions: for ED50: Rattus norvegicus, 95% confidence interval in parentheses
Method: In vivo activity testing was performed at the Epilepsy Branch, National Institute of Neurological Disorders and Stroke, National Institutes of Health (NIH, Bethesda, USA) within the Anticonvulsant Screening Program (ASP) (currently known as the Epilepsy Therapy Screening Program (ETSP)). Pharmacological evaluation was planned and performed in accordance with the Institute of Laboratory Resources polices on the humane care of laboratory animals and approved by the University of Utah’s Institutional Animal Care and Use Committee (IACUC). All testing protocols were previously published as well as they are available on the NIH website. In the tests, albino mice Carworth Farms No.1 (CF-1) (Charles River), C57/Bl6 mice (Charles River), Frings mice (University of Utah) or male rats Sprague–Dawley (Charles River) were used. All animals were housed, fed, and handled in a manner consistent with the recommendations in the National Council Publication, ‘Guide for the Care and Use of Laboratory animals’ [51]. The tested compound was suspended in 0.5% methylcellulose.
After intraperitoneal or oral administration of compound KM-568 at certain dose, an alternating current at 60 Hz and 50 mA (mice) or 150 mA (rats) was delivered for 0.2 sec via corneal electrodes to induce seizures. Prior to each stimulation, a drop of 0.5% tetracaine hydrochloride in saline was applied to cornea. Protection was defined as the abolition of the hindlimb tonic extension of the seizures.

[4] = system: LTG-resistant amygdala kindled Sprague–Dawley rats; assay: Lamotrigine (LTG) resistant amygdala kindled seizure model in rats; type: in vivo; conditions: 0.25 h
Method: Anesthetized male Sprague–Dawley rats (250–300 g) were surgically implanted with an electrode into the left amygdala. After a one-week recovery period, kindling was initiated. A suprathreshold stimulus (200 µA) was delivered daily until all animals display stage 4–5 seizures. Lamotrigine at 5 mg/kg i.p. was also administered daily during kindling acquisition. One week after all animals were kindled, the animals received a challenge dose of lamotrigine (30 mg/kg, i.p.) to confirm LTG-resistance. On the 4th day, compound KM-568 was administered i.p. at the doses 20, 40, and 80 mg/kg. Fifteen minutes after administration, rats were challenged with the kindling stimulus. Results were provided as seizure score (according to Racine scale, protection defined as less than 3) and after discharge duration (in sec).

[5] = system: mice; assay: Formalin test of hyperalgesia; type: in vivo; conditions: 44 mg/kg i.p.; for Reduction of time of licking of the affected paw: not statistically significant; for AUC % Control: vs methylcellulose
Method: 0.05% formalin was injected subdermal to the hindpaws of mice, which caused licking. In the tested group (n = 8), KM-568 was administered intraperitoneally 0.25 h prior to formalin at the dose of 44 mg/kg. In the control group, methylcellulose was used. Animals were then observed for the first 2 min of each 5 min for a total of 40 min. The cumulative duration of licking (in sec) during each 2-min recording period was measured for analysis across compound and vehicle-pretreated groups.

## C[C@H](O)CNC(=O)/C=C/c1ccccc1 [KM-568, S(+)-(2E)-N-(2-hydroxypropyl)-3-phenylprop-2-enamide]
[1]
  Effect in GABA receptor radioligand binding assay: No significant effects
[2]; Mus musculus, ip, mice, 0.5 h (table title)
  ED50: 79.2 mg/kg
[2]; 57 mg/kg
  Average Seizure Score: 4.0
  Results (protected/tested animals): 1/8
[2]; 84 mg/kg
  Average Seizure Score: 3.625
  Results (protected/tested animals): 5/8
[2]; 115 mg/kg
  Average Seizure Score: 0.625
  Results (protected/tested animals): 7/8
[3]; ip, 0.25 h
  ED50: 27.6 mg/kg
[3]; po, 1.0 h
  ED50: 30.8 mg/kg
[3]; i.p., 15 mg/kg, 0.25 h
  MES Results (protected/tested animals): 1/8
[3]; i.p., 22 mg/kg, 0.25 h
  MES Results (protected/tested animals): 3/8
[3]; i.p., 30 mg/kg, 0.25 h
  MES Results (protected/tested animals): 5/8
[3]; i.p., 60 mg/kg, 0.25 h
  MES Results (protected/tested animals): 7/8
[3]; p.o., 20.0 mg/kg, 1.0 h
  MES Results (protected/tested animals): 1/8
[3]; p.o., 30.0 mg/kg, 1.0 h
  MES Results (protected/tested animals): 3/8
[3]; p.o., 35.0 mg/kg, 1.0 h
  MES Results (protected/tested animals): 5/8
[3]; p.o., 40.0 mg/kg, 1.0 h
  MES Results (protected/tested animals): 7/8
[4]; Rattus norvegicus, ip
  ED50: 58.6 mg/kg
[4]; i.p., 20 mg/kg
  Results (protected/tested animals; protection = Racine score <3): 0/7
  Seizure Duration ± SD: 140 ± 17.55 s
  Seizure Score ± SEM: 5.0 ± 0.0
[4]; i.p., 40 mg/kg
  Results (protected/tested animals; protection = Racine score <3): 2/7
  Seizure Duration ± SD: 94.71 ± 8.72 s
  Seizure Score ± SEM: 3.86 ± 0.74
[4]; i.p., 80 mg/kg
  Results (protected/tested animals; protection = Racine score <3): 5/7
  Seizure Duration ± SD: 56.57 ± 12.34 s
  Seizure Score ± SEM: 2.86 ± 0.63
[4]; i.p.
  ED50, lamotrigine-resistant amygdala kindled rat model: 58.69 (38.09–120.15) mg/kg
[5]; acute phase
  AUC (total area under curve, time of licking): 184.18
  Reduction of time of licking of the affected paw: 24%
  AUC % Control: 76.37 % Control
[5]; inflammatory phase
  AUC (total area under curve, time of licking): 556.81
  Reduction of time of licking of the affected paw: 32%
  AUC % Control: 67.96 % Control
